From patent publication US5055470A, “Method of treatment of ischemia in brain” (Bristol-Myers Squibb Co., priority 1989, dated 1991)

Legend:
hypoxia-induced death = experiment: Protection against hypoxia-induced death (1-minute exposure to 100% nitrogen atmosphere); format: in vivo; settings: rats
Procedure: Groups of rats received either water or drug solution in various doses given i.p. at specified times prior to a 1-minute exposure to a 100% nitrogen atmosphere. This 1-minute nitrogen exposure is lethal within 10 minutes to all animals receiving only vehicle. A 25 mg/kg treatment given 15 minutes before nitrogen exposure protected 3 of 8 animals while giving 50 mg/kg protected all animals.

[1] = system: NMDA-evoked release of acetylcholine, rat striatal brain tissue slices; experiment: Antagonism of NMDA-evoked release of tritiated acetylcholine from striatal slices; format: cell-based; settings: rat striatal slices preloaded with tritiated choline; 0.5 mM NMDA; 50 μM compound
Procedure: Slices of rat striatal brain tissue were preloaded with tritiated choline and the release of tritiated acetylcholine evoked by NMDA in the presence or absence of BMY 14802 hydrochloride is measured.

## OC(CCCN1CCN(c2ncc(F)cn2)CC1)c1ccc(F)cc1 (stereo not shown) [BMY 14802, 4-[4-(5-fluoro-2-pyrimidinyl)-1-piperazinyl]-1-(4-fluorophenyl)butanol]
hypoxia-induced death; 25 mg/kg i.p. 15 minutes before nitrogen exposure
  animals protected from hypoxia-induced death: 3 of 8
hypoxia-induced death; 25 mg/kg i.p. 30 minutes before nitrogen exposure
  animals protected from hypoxia-induced death: 4 of 8
hypoxia-induced death; 25 mg/kg i.p. 60 minutes before nitrogen exposure
  animals protected from hypoxia-induced death: no protection
hypoxia-induced death; 50 mg/kg i.p. 15 minutes before nitrogen exposure
  animals protected from hypoxia-induced death: all animals
hypoxia-induced death; 50 mg/kg i.p. 30 minutes before nitrogen exposure
  animals protected from hypoxia-induced death: 3 of 8
hypoxia-induced death; 50 mg/kg i.p. 60 minutes before nitrogen exposure
  animals protected from hypoxia-induced death: 2 of 8
[1]
  attenuation of acetylcholine release evoked by NMDA: significant attenuation
